“Also recorded” adds a separate entry of the source.
What was measured:
Type in all cases: in vivo, human
[1] = system: patients with mild to moderate psoriasis; experiment: Clinical response by static Investigator's Global Assessment (sIGA) score, phase 1 placebo-controlled study; details: 200 mg BID
Method: A double-blind, randomized, placebo-controlled phase 1 study was carried out in participants with mild to moderate psoriasis. Study participants were randomized to 200 mg twice a day (BID) of Compound 1 or placebo in 2:1 ratio (approximately 24 in the treatment group and 12 in the placebo group). The study comprised an up to 4-week screening period, and a 4-week treatment period with Compound 1 or placebo. An end-of-study visit was carried out 10±3 days after the last investigational medicinal product (IMP) administration.
(§1) Two study interventions were used, Compound 1 and placebo. The Compound 1 intervention comprised 4× tablets of Compound 1 50 mg twice daily, i.e. 200 mg BID, for 4 weeks. The placebo intervention was 4× tablets of placebo twice daily for 4 weeks. Tablets were administered orally.
The interventions were used in two arms of the study. Arm 1 was the experimental arm and it involved participants receiving 200 mg of Compound BID for 4 weeks under fed conditions. Arm 2 was the placebo arm and it involved participants receiving the matching placebo tablets for 4 weeks under fed conditions.
The sIGA employed in this study is a six-point ordinal scale used to assess the global severity of disease over the body as a whole, as measured by the overall degree of induration, scaling and erythema of a subject's psoriatic lesions. For statistical analysis, the scale was assigned scores of 0 to 5, for ‘clear’ to ‘very severe’, respectively.
Scoring was accorded to a subject on a scale of 0 to 5 for each of erythema, induration, and scaling; a mean sIGA score was calculated as the mean average of those individual scores and this was translated into an overall sIGA score (an integer between 0 and 5) as described in the tables below:
The sIGA score was assessed as described herein.

IL-17A = experiment: Serum levels of biomarker IL-17A (single molecule counting sandwich immunoassay)
Method: (§2) The primary objective of the study was to assess the safety, tolerability, and clinical efficacy of Compound 1 at 200 mg BID via oral administration. Also evaluated was the clinical effect of Compound 1 as compared to placebo on the percent change in PASI and TLS scores from baseline to week 2 and week 4. The percent change in PASI score from baseline to week 4 was determined. TLS score was also assessed over the same time period. Also assessed was the effect of Compound 1 on biomarkers of psoriasis. Blood samples collected at predetermined time points were processed to quantify serum levels of biomarkers, including interleukin (IL)-17A, IL-17F, and IL-22 by high sensitivity methods. IL-17A, IL-17F and IL-22 are the main cytokines released by Th17 cells. Plasma levels of Compound 1 were measured to assess pharmacokinetics in the study population.
as §1
(§3) Blood samples were processed for analysis of IL-17A, IL-17F and IL-22 in serum samples by high sensitivity methods. Samples were collected according to the schedule of activity described above.
(§4) As indicated above, peripheral blood samples collected at predetermined time points were processed to quantify serum levels of biomarkers of psoriasis including IL-17A, IL-17F, and IL-22. Levels of IL-17A and IL-17F were quantified using a single molecule counting sandwich immunoassay (SMCxPro™, Millipore—see also Hwang et al., Methods (2019) 158:69-76). Levels of IL-22 were quantified using a single-molecule array ELISA (SIMOA™, Myriad RBM—see also Rissin et al., Anal Chem (2011) 83(6):2279-2285). Statistical analysis was based on geometric mean ratio to baseline; a two-sample t-test at significance alpha level of 5% was used for calculation of the p-values.

IL-17F = experiment: Serum levels of biomarker IL-17F (single molecule counting sandwich immunoassay)
Method: as §2, §1, §3, §4

CN1C(=O)c2cccc(OC(F)F)c2[C@H]2C[C@@H]1c1nc3ccc(-c4cnc(C5(N)CCC5)nc4)cc3n12 [Compound 1, (7R,14R)-11-[2-(1-aminocyclobutyl)pyrimidin-5-yl]-1-(difluoromethoxy)-6-methyl-6,7-dihydro-7,14-methanobenzimidazo[1,2-b][2,5]benzodiazocin-5(14H)-one]
change in sIGA score (in words) ([1]; compared with placebo): clinically important change in sIGA score after 4 weeks of treatment; also recorded: a higher percentage of patients receiving Compound 1 improved from ‘moderate’ disease at baseline, to ‘mild’ or ‘almost clear’ at week 2 and week 4
% of subjects with no change in sIGA from baseline ([1]; week 2): 68.0%
% of subjects with sIGA change from baseline of −1 ([1]; week 2): 32.0%
Number of subjects with no change in sIGA from baseline ([1]; week 2): 17
Number of subjects with sIGA change from baseline of +1 ([1]; week 2): 0
Number of subjects with sIGA change from baseline of −1 ([1]; week 2): 8
% of subjects with no change in sIGA from baseline ([1]; week 4): 38.5%
% of subjects with sIGA change from baseline of +1 ([1]; week 4): 4.2%
Number of subjects with no change in sIGA from baseline ([1]; week 4): 9
Number of subjects with sIGA change from baseline of +1 ([1]; week 4): 1
Number of subjects with sIGA change from baseline of −1 ([1]; week 4): 14
% of subjects with sIGA change from baseline of −1 (improvement by at least 1 severity level) ([1]; week 4, placebo 0%): 58.3%
Serum level of IL-17A (in words) (IL-17A; after treatment for 4 weeks): substantially decreased
Serum level of IL-17A, geometric mean (geometric SE) (IL-17A; baseline (before treatment)): 0.62 (1.15) pg/mL
Serum level of IL-17A, geometric mean (geometric SE) (IL-17A; week 2, 200 mg BID): 0.56 (1.13) pg/mL
Serum level of IL-17A, geometric mean (geometric SE) (IL-17A; week 4, 200 mg BID): 0.45 (1.14) pg/mL
Serum level of IL-17F (in words) (IL-17F; after treatment for 4 weeks): substantially decreased
Serum level of IL-17F, geometric mean (geometric SE) (IL-17F; baseline (before treatment)): 2.63 (1.19) pg/mL
Serum level of IL-17F, geometric mean (geometric SE) (IL-17F; week 2, 200 mg BID): 1.65 (1.21) pg/mL
Serum level of IL-17F, geometric mean (geometric SE) (IL-17F; week 4, 200 mg BID): 1.35 (1.21) pg/mL

Reference: patent US20260294906A1, “TREATING PSORIASIS USING A SMALL MOLECULE INHIBITOR OF TUMOR NECROSIS FACTOR ALPHA” (SANOFI, priority 2023, published 2026)
